Consider eleven compounds from patent US20140228349A1, “5,7-SUBSTITUTED-IMIDAZO[1,2-C]PYRIMIDINES” (Array BioPharma Inc., priority 2011, published 2014).

What all share (assay type): biochemical
Test [1] addresses T1, Human Tyk2 kinase domain (Homo sapiens, UniProt P29597).
T1 construct: comprising amino acids 886 to 1187; His10 (10 histidine residues) (C, cleaved yes); made in house
T1 sequence (P29597 886-1187): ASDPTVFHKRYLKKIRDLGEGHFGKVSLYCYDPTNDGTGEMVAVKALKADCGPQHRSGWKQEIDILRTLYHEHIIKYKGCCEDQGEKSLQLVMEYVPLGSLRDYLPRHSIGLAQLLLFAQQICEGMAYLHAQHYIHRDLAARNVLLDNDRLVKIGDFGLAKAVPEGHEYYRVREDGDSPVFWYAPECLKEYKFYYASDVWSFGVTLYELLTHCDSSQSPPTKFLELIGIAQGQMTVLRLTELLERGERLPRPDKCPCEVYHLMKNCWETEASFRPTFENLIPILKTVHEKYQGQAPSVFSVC
The experiment in a line: Tyk2 Inhibition Assay (Omnia kinase fluorescence peptide substrate). The settings on record: averaged IC50 ranges; 10 μM (Km app) or 1 mM ATP, 2 nM Tyk2. The source says:
(§1) The assays described in Examples A, B, C and D for the determination of Tyk2, JAK1, JAK2 and JAK3 kinase activity, respectively, utilized the Omnia® Kinase fluorescence peptide substrate-based technology (Invitrogen). The specific components of the assay mixture are described in Examples A, B, C and D. In these assays, Mg^2+ is chelated upon phosphorylation of the Omnia peptide by the kinase to form a bridge between the chelation-enhanced fluorophore Sox and the phosphate, resulting in an increase in fluorescence emission at 485 nm when excited at […]. The reactions were therefore read at excitation 360 nm and emission was measured at 485 nm every 50 seconds for 45 minutes using a PerkinElmer EnVision Multilabel Plate Reader.
(§2) The final buffer conditions for Tyk2, JAK1, JAK2, and JAK3 assays were as follows: 25 mM HEPES, pH 7.4, 10 mM MgCl2, 0.01% Triton X-100 and 1 mM DTT.
(§3) Compounds were prepared at 50× the final concentration in DMSO by conducting 3-fold serial dilutions from a 500-μM intermediate dilution to give a 10-point dosing curve having a high dose of 10 μM. Two-μL aliquots of these were transferred to a fresh plate for a ten-fold intermediate dilution with assay buffer. Five-μL aliquots of the diluted compounds were then transferred to 20-μL of assay mixtures described in Examples A, B, C and D for a final concentration of DMSO of 2%. A standard or reference compound was typically included on each assay plate to validate that plate. For each plate, percent of control (POC) values were calculated for each well according to the following equation: […]
(§4) IC50's were estimated from the POC's using a standard 4-parameter logistic model:
(§5) The IC50 is defined as the concentration of inhibitor at which the POC equals 50 for the fitted curve.
Compounds of Formula I were screened for their ability to inhibit Tyk2 using the general enzyme inhibition assay method, in which the assay mixture contained 10 μM (Km app) or 1 mM ATP, 8 μM Omnia® Y12 peptide (Catalog #IVGN KPZ3121C; Invitrogen Corporation, Carlsbad, Calif.) and 2 nM Tyk2 in a total volume of 20 μL. Human Tyk2 kinase domain, comprising amino acids 886 to 1187 with 10 additional histidine residues (histidine tag) on the carboxy terminus, was expressed and purified from bacculovirus in-house at Array BioPharma Inc. (Boulder, Colo.). The histidine tag was cleaved after purification using standard conditions.

Test [2] deals with T2, JAK1 (Homo sapiens, UniProt P23458).
T2 construct: purchased Invitrogen Corporation, Carlsbad, Calif; IVGN PV4775
T2 sequence (P23458 whole entry): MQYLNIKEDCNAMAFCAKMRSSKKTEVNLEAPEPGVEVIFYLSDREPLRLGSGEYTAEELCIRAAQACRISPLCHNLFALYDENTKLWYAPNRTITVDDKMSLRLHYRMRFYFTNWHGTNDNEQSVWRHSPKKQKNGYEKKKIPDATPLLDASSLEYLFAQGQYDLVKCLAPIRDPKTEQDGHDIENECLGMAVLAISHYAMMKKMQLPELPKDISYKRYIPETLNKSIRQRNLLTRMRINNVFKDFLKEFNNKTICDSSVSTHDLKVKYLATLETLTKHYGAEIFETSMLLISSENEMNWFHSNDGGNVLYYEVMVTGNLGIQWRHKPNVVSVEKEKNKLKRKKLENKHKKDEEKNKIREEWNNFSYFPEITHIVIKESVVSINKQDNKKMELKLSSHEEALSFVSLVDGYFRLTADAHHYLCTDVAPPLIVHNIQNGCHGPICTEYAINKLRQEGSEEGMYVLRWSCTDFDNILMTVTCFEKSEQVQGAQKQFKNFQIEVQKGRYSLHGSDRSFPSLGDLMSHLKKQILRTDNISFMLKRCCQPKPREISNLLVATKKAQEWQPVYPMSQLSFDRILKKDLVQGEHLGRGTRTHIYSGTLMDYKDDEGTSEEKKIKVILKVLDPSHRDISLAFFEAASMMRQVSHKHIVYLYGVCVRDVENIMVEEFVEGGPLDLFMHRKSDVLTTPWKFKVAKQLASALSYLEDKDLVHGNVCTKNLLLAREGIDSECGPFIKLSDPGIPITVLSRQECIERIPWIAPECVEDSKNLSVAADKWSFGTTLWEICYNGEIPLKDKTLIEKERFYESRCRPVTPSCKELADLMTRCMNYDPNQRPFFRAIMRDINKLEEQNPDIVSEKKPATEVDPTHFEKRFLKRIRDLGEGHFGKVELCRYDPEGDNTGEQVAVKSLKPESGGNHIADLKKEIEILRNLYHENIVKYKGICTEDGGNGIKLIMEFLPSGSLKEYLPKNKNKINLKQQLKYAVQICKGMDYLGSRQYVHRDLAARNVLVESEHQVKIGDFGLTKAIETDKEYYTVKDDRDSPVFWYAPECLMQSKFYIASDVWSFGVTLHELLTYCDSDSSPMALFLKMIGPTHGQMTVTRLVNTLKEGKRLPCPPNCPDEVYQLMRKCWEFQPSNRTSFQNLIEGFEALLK
The experiment in a line: JAK1 Inhibition Assay (Omnia kinase fluorescence peptide substrate). The settings on record: averaged IC50 ranges; 40 μM (Km app) or 1 mM ATP, 15 nM JAK1.
From the text: as §1, §2, §3, §4, §5
Compounds of Formula I were screened for their ability to inhibit JAK1 using the general enzyme inhibition assay method, in which the assay mixture contained 40 μM (Km app) or 1 mM ATP, 8 μM Omnia® Y12 peptide (Catalog #IVGN KPZ3121C; Invitrogen Corporation, Carlsbad, Calif.) and 15 nM JAK1 in a total volume of 20 μL. JAK1 was purchased from Invitrogen Corporation, Carlsbad, Calif. (catalog #IVGN PV4775).

Test [3] addresses T3, JAK2 (Homo sapiens, UniProt O60674).
T3 construct: purchased Invitrogen Corporation, Carlsbad, Calif; IVGN PV4288
Briefly: JAK2 Inhibition Assay (Omnia kinase fluorescence peptide substrate). The conditions noted are these: averaged IC50 ranges; 25 μM (Km app) or 1 mM ATP, 5 nM JAK2.
From the text: as §1, §2, §3, §4, §5
Compounds of Formula I were screened for their ability to inhibit JAK2 using the general enzyme inhibition assay method, in which the assay mixture contained 25 μM (Km app) or 1 mM ATP, 10 μM Omnia® Y7 peptide (Catalog #IVGN KNZ3071C, Invitrogen Corporation, Carlsbad, Calif.) and 5 nM JAK2 in a total volume of 20 μL. JAK2 was purchased from Invitrogen Corporation, Carlsbad, Calif. (catalog #IVGN PV4288).

Test [4] deals with T4, JAK3 (Homo sapiens, UniProt P52333).
T4 construct: purchased Invitrogen Corporation, Carlsbad, Calif; IVGN PV4080
T4 sequence (P52333 1-1124): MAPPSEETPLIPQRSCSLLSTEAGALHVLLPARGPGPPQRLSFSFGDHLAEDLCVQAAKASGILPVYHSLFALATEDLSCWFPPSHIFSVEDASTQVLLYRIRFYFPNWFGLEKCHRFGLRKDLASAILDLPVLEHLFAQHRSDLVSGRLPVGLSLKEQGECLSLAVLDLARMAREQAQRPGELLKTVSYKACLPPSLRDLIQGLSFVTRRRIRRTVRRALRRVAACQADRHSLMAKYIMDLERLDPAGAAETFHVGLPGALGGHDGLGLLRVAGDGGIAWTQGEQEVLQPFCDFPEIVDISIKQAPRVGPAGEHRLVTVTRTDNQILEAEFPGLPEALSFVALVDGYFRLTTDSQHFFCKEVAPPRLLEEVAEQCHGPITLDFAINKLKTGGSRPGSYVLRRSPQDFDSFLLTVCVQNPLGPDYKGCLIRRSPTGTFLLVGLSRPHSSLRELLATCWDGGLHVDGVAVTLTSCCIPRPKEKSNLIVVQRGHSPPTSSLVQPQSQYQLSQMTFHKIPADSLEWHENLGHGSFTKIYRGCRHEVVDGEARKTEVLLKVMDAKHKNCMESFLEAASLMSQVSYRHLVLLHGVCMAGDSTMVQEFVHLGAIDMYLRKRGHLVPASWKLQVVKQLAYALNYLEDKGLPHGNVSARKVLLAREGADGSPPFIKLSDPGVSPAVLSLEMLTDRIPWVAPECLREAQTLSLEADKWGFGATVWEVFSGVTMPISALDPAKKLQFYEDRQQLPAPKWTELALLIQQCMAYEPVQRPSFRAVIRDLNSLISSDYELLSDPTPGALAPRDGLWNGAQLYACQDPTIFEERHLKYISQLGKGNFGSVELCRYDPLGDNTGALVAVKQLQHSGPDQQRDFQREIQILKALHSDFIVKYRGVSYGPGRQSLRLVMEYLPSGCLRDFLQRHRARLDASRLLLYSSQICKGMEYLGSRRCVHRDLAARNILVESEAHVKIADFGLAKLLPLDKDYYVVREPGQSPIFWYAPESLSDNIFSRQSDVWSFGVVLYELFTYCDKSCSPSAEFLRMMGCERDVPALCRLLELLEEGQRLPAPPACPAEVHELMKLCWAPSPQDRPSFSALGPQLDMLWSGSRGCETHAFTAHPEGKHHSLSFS
The experiment in a line: JAK3 Inhibition Assay (Omnia kinase fluorescence peptide substrate). The conditions noted are these: averaged IC50 ranges; 10 μM (Km app) or 1 mM ATP, 2.5 nM JAK3.
From the text: as §1, §2, §3, §4, §5
Compounds of Formula I were screened for their ability to inhibit JAK3 using the general enzyme inhibition assay method, in which the assay mixture contained 10 μM (Km app) or 1 mM ATP, 10 μM Omnia® Y7 peptide (Catalog #IVGN KNZ3071C, Invitrogen Corporation, Carlsbad, Calif.) and 2.5 nM JAK3 in a total volume of 20 μL. JAK3 was purchased from Invitrogen Corporation, Carlsbad, Calif. (catalog #IVGN PV4080).

SMILES strings stand for the structures.

T3 sequence (O60674 whole entry): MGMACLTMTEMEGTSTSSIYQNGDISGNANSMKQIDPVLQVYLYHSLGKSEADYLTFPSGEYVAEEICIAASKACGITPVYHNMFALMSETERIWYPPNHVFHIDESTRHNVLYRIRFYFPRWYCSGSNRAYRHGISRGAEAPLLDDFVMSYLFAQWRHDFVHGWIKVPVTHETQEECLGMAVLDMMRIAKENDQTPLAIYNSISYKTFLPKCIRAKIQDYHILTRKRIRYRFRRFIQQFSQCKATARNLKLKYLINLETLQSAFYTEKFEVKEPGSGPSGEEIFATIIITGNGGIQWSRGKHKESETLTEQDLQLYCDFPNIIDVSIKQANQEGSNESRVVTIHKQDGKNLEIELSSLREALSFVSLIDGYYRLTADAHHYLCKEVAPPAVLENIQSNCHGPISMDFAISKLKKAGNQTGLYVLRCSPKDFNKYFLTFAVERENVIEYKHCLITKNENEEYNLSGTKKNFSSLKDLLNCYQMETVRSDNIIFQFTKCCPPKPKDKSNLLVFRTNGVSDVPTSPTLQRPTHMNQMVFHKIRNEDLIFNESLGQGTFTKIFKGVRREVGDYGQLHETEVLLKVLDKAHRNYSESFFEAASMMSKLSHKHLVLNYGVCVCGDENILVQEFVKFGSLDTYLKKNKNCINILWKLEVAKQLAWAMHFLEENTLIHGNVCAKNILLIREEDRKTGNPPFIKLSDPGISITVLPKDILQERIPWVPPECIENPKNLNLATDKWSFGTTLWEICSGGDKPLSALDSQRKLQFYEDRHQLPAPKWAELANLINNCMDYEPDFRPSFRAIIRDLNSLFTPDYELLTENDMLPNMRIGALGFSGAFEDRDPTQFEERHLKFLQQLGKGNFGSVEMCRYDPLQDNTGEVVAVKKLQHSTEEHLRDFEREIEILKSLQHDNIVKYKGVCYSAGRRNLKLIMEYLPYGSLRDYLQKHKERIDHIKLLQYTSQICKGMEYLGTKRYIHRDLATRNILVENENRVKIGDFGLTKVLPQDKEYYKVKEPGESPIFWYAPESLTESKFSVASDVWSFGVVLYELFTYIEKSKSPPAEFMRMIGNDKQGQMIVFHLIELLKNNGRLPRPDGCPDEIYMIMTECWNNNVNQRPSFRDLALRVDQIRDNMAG

Turning to `Cn1cc(-c2cc3nccn3c(-c3cnn(C(CC4CC4)CC4CC4)c3)n2)cn1` [Example 11, 5-(1-(1,3-Dicyclopropylpropan-2-yl)-1H-pyrazol-4-yl)-7-(1-methyl-1H-pyrazol-4-yl)imidazo[1,2-c]pyrimidine], the 50% inhibitory concentration (IC50) fell in the range of 0.01 to 0.1 µM in test [1], 0.1 to 1 µM in test [2], 0.01 to 0.1 µM in test [3] and 0.1 to 1 µM in test [4].

In the case of `CCOC(=O)CC(C1CC1)n1cc(-c2nc(-c3cnn(C)c3)cc3nccn23)cn1` (centres unmarked) [Example 12, Ethyl 3-cyclopropyl-3-(4-(7-(1-methyl-1H-pyrazol-4-yl)imidazo[1,2-c]pyrimidin-5-yl)-1H-pyrazol-1-yl)propanoate], the IC50 in test [1] is 0.1 to 1 µM; in test [2], greater than 1 µM; in test [3], greater than 1 µM; in test [4] it was greater than 1 µM.

Consider `Cn1cc(-c2cc3nccn3c(-c3cnn(C(CCO)C4CC4)c3)n2)cn1` (centres unmarked) [Example 13, 3-cyclopropyl-3-(4-(7-(1-methyl-1H-pyrazol-4-yl)imidazo[1,2-c]pyrimidin-5-yl)-1H-pyrazol-1-yl)propan-1-ol], for which the IC50 in test [1] is 0.1 to 1 µM; in test [2], greater than 1 µM; in test [3] it was 0.1 to 1 µM; in test [4] it was greater than 1 µM.

For `CC(C1CC1)n1cc(-c2nc(-c3cnn(C)c3)cc3nccn23)cn1` (centres unmarked) [Example 14, 5-(1-(1-Cyclopropylethyl)-1H-pyrazol-4-yl)-7-(1-methyl-1H-pyrazol-4-yl)imidazo[1,2-c]pyrimidine], the IC50 in test [1] was 0.01 to 0.1 µM; in test [2] it was greater than 1 µM; in test [3], 0.1 to 1 µM; in test [4], greater than 1 µM.

`CCCC(C1CC1)n1cc(-c2nc(-c3cnn(C)c3)cc3nccn23)cn1` (centres unmarked) [Example 15, 5-(1-(1-Cyclopropylbutyl)-1H-pyrazol-4-yl)-7-(1-methyl-1H-pyrazol-4-yl)imidazo[1,2-c]pyrimidine]: the IC50 in test [1] lay within 0.01 to 0.1 µM; in test [2] it was 0.1 to 1 µM; in test [3], 0.01 to 0.1 µM; in test [4], 0.1 to 1 µM.

With `Cn1cc(-c2cc3nccn3c(-c3cnn(C4(C)CN(S(=O)(=O)C(F)(F)F)C4)c3)n2)cn1` [Example 16, 5-(1-(3-Methyl-1-(trifluoromethylsulfonyl)azetidin-3-yl)-1H-pyrazol-4-yl)-7-(1-methyl-1H-pyrazol-4-yl)imidazo[1,2-c]pyrimidine], the IC50 in test [1] is 0.01 to 0.1 µM; in test [2], 0.1 to 1 µM; in test [3], 0.1 to 1 µM; in test [4], greater than 1 µM.

For the compound `Cn1cc(-c2cc3nccn3c(-c3cnn(C(CCF)C4CC4)c3)n2)cn1` (centres unmarked) [Example 17, 5-(1-(1-Cyclopropyl-3-fluoropropyl)-1H-pyrazol-4-yl)-7-(1-methyl-1H-pyrazol-4-yl)imidazo[1,2-c]pyrimidine], the IC50 in test [1] was less than 0.01 µM; in test [2] it was 0.1 to 1 µM; in test [3] it was 0.01 to 0.1 µM; in test [4] it was 0.1 to 1 µM.

Take `Cn1cc(-c2cc3nccn3c(-c3cnn(C4(CCF)CN(S(=O)(=O)C(F)(F)F)C4)c3)n2)cn1` [Example 18, 5-(1-(3-(2-Fluoroethyl)-1-(trifluoromethylsulfonyl)azetidin-3-yl)-1H-pyrazol-4-yl)-7-(1-methyl-1H-pyrazol-4-yl)imidazo[1,2-c]pyrimidine]: the IC50 in test [1] was less than 0.01 µM; in test [2] it was 0.1 to 1 µM; in test [3], 0.01 to 0.1 µM; in test [4] it was 0.1 to 1 µM.

As to `Cn1cc(-c2cc3nccn3c(-c3cnn(C4(CCF)CN(CC(F)(F)F)C4)c3)n2)cn1` [Example 19, 5-(1-(3-(2-Fluoroethyl)-1-(2,2,2-trifluoroethyl)azetidin-3-yl)-1H-pyrazol-4-yl)-7-(1-methyl-1H-pyrazol-4-yl)imidazo[1,2-c]pyrimidine], the IC50 in test [1] was 0.01 to 0.1 µM; in test [2], greater than 1 µM; in test [3], 0.1 to 1 µM; in test [4], greater than 1 µM.

Regarding `CCC1(n2cc(-c3nc(-c4cnn(C)c4)cc4nccn34)cn2)CN(S(=O)(=O)C(F)(F)F)C1` [Example 20, 5-(1-(3-ethyl-1-(trifluoromethylsulfonyl)azetidin-3-yl)-1H-pyrazol-4-yl)-7-(1-methyl-1H-pyrazol-4-yl)imidazo[1,2-c]pyrimidine], the concentration for half-maximal inhibition (IC50) in test [1] lay within 0.01 to 0.1 µM; in test [2], 0.1 to 1 µM; in test [3], 0.01 to 0.1 µM; in test [4], 0.1 to 1 µM.

With `CSCCn1cc(-c2nc(-c3cnn(C)c3)cc3nccn23)cn1` [Example 21, 7-(1-methyl-1H-pyrazol-4-yl)-5-(1-(2-(methylthio)ethyl)-1H-pyrazol-4-yl)imidazo[1,2-c]pyrimidine], the IC50 was in the range of 0.01 to 0.1 µM in test [1], 0.1 to 1 µM in test [2], 0.01 to 0.1 µM in test [3] and 0.1 to 1 µM in test [4].
